Source: patent US20250144102A1, “1 H-PYRAZOLO[4,3-D]PYRIMIDINE DERIVATIVES AS STAPHYLOCOCCUS AUREUS INHIBITORS” (DR REDDY'S INSTITUTE OF LIFE SCIENCES, priority 2022, published 2025)
≈ marks a conversion by molar mass, not a printed value. Read-outs that look alike come from different tables or passages of the source.

Experiments:
Type in all cases: cell-based
[1] = test system: Staphylococcus aureus (Gentamicin resistant) ATCC43300; assay: MIC broth microdilution, S. aureus ATCC43300; conditions: Staphylococcus aureus ATCC43300 (resistant to Methicillin, Oxacillin, Gentamicin and Azithromycin), CAMHB, 37° C., 18-20 hours, 90% growth inhibition
Procedure: (§1) Compound 7 was tested to evaluate its inhibitory effect on Staphylococcus aureus. An experiment was conducted to assess the minimum inhibitory concentration (MIC) of the compound of Formula (I).
(§2) 20.0 mg of test compound was weighed and dissolved in 0.5 mL of filtered DMSO (100%) to prepare a stock solution of 40 mg/mL concentration. Initial stock (Stock 1 and Stock 2) and working stock solution (10 concentrations) were prepared as mentioned in the table below. Final testing concentration in the micro-titer plates was starting from 1000 μg/mL in experiment plate.
(§3) The reference standards gentamicin, norfloxacin and levofloxacin were dissolved using sterile ultrapure water to prepare a stock solution of 2.0 mg/mL concentration. Working stock solution of 64 μg/mL was prepared in CAMHB by diluting 0.032 mL of 2.0 mg/mL stock solution in 0.968 mL of growth medium. The testing concentration in the micro-titer plates is 32 μg/mL.
(§4) Tester strains were sub-cultured on Soyabean Casein digest Agar (SCDA) and incubated at 37° C. for 18-20 hours in aerobic condition. After incubation, the isolated colonies were suspended in sterile saline to prepare the bacterial suspension. The bacterial suspension was adjusted to ˜1×10^8 CFU/mL.
(§5) ? titer plates (Flat bottom) were prepared as per the CLSI recommendations. The test compound and reference compounds dilution were performed in the micro titer plates. Two hundred microliters of respective growth medium were added to the wells of a 96-wellflat bottom plate well A1 to E1 for Broth control. One hundred microliters of respective growth medium were added to all the wells B3 to B11, C3 to C11, D3 to D11, E3 to E11 except B2 to E2. One hundred microliters of prepared test compound 7 working stock solution (10 concentrations) were added from A2 to A11. Two hundred microliters of reference Standard were added to B2, C2 and D2. Two hundred microliters of DMSO were to E2 as negative control. One hundred microliter was transferred from B2, C2, D2 and E2 wells B3, C3, D3 and E3 wells respectively and serially diluted up to B11, C11, D11 and E11 wells. One hundred microliter after serial dilution was discarded from Bit, C11, D11 and E11 wells, wells A12 to F12 serve as culture control.
(§6) The adjusted bacterial suspension was further diluted in CAMHB (Section 6.5), 100 μl of diluted culture was added to micro titer plate where the final concentration was 5×10^5 CFU/mL. Plates were incubated at 37° C. for 18-20 hours at aerobic conditions.
(§7) After incubation, visual readings were recorded, and the optical density was measured at 600 nm in spectrophotometer. The concentration of compound at 90% growth was inhibited compared to growth control was considered as the MIC value.

[2] = test system: Gram-positive Staphylococcus aureus strains, including MRSA and GR-MRSA; assay: MIC, summary over S. aureus strains; conditions: various Staphylococcus aureus strains, including MRSA and GR-MRSA (text summary of Table 1)
Procedure: as §1, §2, §3
as §4, with “CFU/mL. […]” for “CFU/mL.”
After incubation, visual readings were recorded, and the optical density was measured at 600 nm in spectrophotometer. […]

[3] = test system: Staphylococcus aureus ATCC25923; assay: MIC broth microdilution, S. aureus ATCC25923; conditions: Staphylococcus aureus ATCC25923 (sensitive strain), CAMHB, 37° C., 18-20 hours, 90% growth inhibition
Procedure: as §1, §2, §3, §4, §5, §6, §7

[4] = test system: Escherichia coli ATCC9637; assay: MIC broth microdilution, E. coli ATCC9637; conditions: CAMHB, 37° C., 18-20 hours, 90% growth inhibition
Procedure: [The source words this procedure for another organism and reports this organism under the same test.] as §1, §2, §3, §4, §5, §6, §7

[5] = test system: Staphylococcus aureus ATCC29213; assay: MIC broth microdilution, S. aureus ATCC29213; conditions: Staphylococcus aureus ATCC29213 (sensitive strain), CAMHB, 37° C., 18-20 hours, 90% growth inhibition
Procedure: as §1, §2, §3, §4, §5, §6, §7

[6] = test system: Klebsiella pneumoniae ATCC 700603; assay: MIC broth microdilution, K. pneumoniae ATCC 700603; conditions: 37° C., 18-20 hours, 90% growth inhibition
Procedure: [The source words this procedure for another organism and reports this organism under the same test.] as §1, §2, §3, §4, §5, §6, §7

[7] = test system: Pseudomonas aeruginosa ATCC 9027; assay: MIC broth microdilution, P. aeruginosa ATCC 9027; conditions: 37° C., 18-20 hours, 90% growth inhibition
Procedure: [The source words this procedure for another organism and reports this organism under the same test.] as §1, §2, §3, §4, §5, §6, §7

[8] = test system: Staphylococcus aureus ATCC700699; assay: MIC broth microdilution, S. aureus ATCC700699; conditions: Staphylococcus aureus ATCC700699 (resistant to Methicillin and Oxacillin), CAMHB, 37° C., 18-20 hours, 90% growth inhibition
Procedure: as §1, §2, §3, §4, §5, §6, §7

[9] = ATCC700603, CAMHB, read-out: MIC

Molecule	MIC ([1]; read-out: MIC) [µg/mL]	MIC [2] [µg/mL]	MIC ([3]; read-out: MIC) [µg/mL]	MIC ([4]; read-out: MIC) [µg/mL]	MIC ([5]; read-out: MIC) [µg/mL]	MIC [6, 9] [µg/mL]	MIC ([7]; ATCC9027, CAMHB, read-out: MIC) [µg/mL]	MIC ([8]; read-out: MIC) [µg/mL]	MIC [1] [µg/mL]	MIC [3] [µg/mL]	MIC [4] [µg/mL]	MIC [5] [µg/mL]	MIC ([6]; CAMHB) [µg/mL]	MIC ([7]; CAMHB) [µg/mL]	MIC [8] [µg/mL]
CCCc1nn(C)c2c(-c3c[nH]c4ccc(Cl)cc34)nc(-c3ccc(Cl)cc3)nc12 [Compound 7, 7-(5-chloro-1H-indol-3-yl)-5-(4-chlorophenyl)-1-methyl-3-propyl-1H-pyrazolo[4,3-d]pyrimidine]	1 (≈ 2.29 µM)	1 (≈ 2.29 µM)	1 (≈ 2.29 µM)	> 1000	1 (≈ 2.29 µM)	> 1000	> 1000	1 (≈ 2.29 µM)							
C[C@H]1COc2c(N3CCN(C)CC3)c(F)cc3c(=O)c(C(=O)O)cn1c23 [Levofloxacin, levofloxacin]	0.13 (≈ 0.36 µM)		0.13 (≈ 0.36 µM)	≤ 0.06	0.13 (≈ 0.36 µM)	0.5 (≈ 1.38 µM)	0.5 (≈ 1.38 µM)	16 (≈ 44.3 µM)							
CCn1cc(C(=O)O)c(=O)c2cc(F)c(N3CCNCC3)cc21 [Norfloxacin, norfloxacin]	1 (≈ 3.13 µM)		2 (≈ 6.26 µM)	≤ 0.06	1 (≈ 3.13 µM)	4 (≈ 12.5 µM)	0.5 (≈ 1.57 µM)	> 32							
gentamicin									>32.00	0.25	1.00	0.50	16.00	2.00	>32.00
